These results are taken from patent US20260166039A1 (SCHRÖDINGER, INC., priority 2022, published 2026).

Where two headings read alike, the source gives them in different places. Some results are limits rather than exact numbers.

The test system of test [1] is phosphorylation of Cdc2 Y15 (Wee1 substrate) in A427 cells. Briefly: Phosphorylated Cdc2 MSD Electrochemiluminescence Assay. Type of test: cell-based. Conditions: Homo sapiens. A digest of the protocol: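 Read-out: percent residual phospho-Cdc2 Y15 relative to DMSO and positive-control Wee1 inhibitor, measured by MSD electrochemiluminescence capture/detection antibody assay in cell lysates. A427 cells received duplicate 3-fold compound dilution series 20 h post-seeding, with 6 h total incubation at 37 °C.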

Another test has as its target T1, Wee1 kinase domain (Homo sapiens, UniProt P30291).
T1 construct: Wee1 kinase domain was purchased from Carna (catalog #05-177); purchased Carna 05-177
Briefly: Wee1 Kinase Biochemical Assay (ADP-Glo). Conditions: 15 uM ATP. In a few lines:
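Compounds tested against 1 nM Wee1 kinase domain in Tris buffer containing 20 mM MgCl2, BSA and 2 mM DTT, with 15 uM ATP and poly(Lys,Tyr) substrate for 4 h at 25 °C. Luminescent ADP detection gave percent inhibition, normalized to DMSO and saturating inhibitor.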

[2] abbreviates: A-427, class symbols, read-out: A427 pCDC2 MSD IC50.
Setting [3] is: class symbols, 1 nM Wee1 enzyme, 4 hours at 25° C.

T1 sequence (P30291 299-569 limits assumed): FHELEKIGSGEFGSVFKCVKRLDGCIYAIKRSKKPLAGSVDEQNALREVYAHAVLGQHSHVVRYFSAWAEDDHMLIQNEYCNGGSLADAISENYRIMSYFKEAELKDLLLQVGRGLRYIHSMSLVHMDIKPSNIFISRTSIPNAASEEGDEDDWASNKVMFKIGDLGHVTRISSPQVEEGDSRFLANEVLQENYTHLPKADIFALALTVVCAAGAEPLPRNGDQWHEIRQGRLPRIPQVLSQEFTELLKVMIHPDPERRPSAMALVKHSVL

For the compound `C[C@H]1CCC(=O)N1c1cccc(N2c3nc(Nc4ccc(N5C[C@@H]6C[C@H]5CN6C)cc4)ncc3[C@@]3(C)COC(C)(C)C[C@@H]23)n1` [Example 651, (S)-5-methyl-1-(6-((4bR,8aR)-4b,7,7-trimethyl-2-((4-((1S,4S)-5-methyl-2,5-diazabicyclo[2.2.1]heptan-2-yl)phenyl)amino)-4b,7,8,8a-tetrahydropyrano[3′,4′:4,5]pyrrolo[2,3-d]pyrimidin-9(5H)-yl)pyridin-2-yl)pyrrolidin-2-one], the IC50 in test [1] (setting [2]) was 100 to 1000 nM; against Wee1 kinase domain (setting [3]), less than 10 nM.

`CNC1(c2cccc(N3c4nc(Nc5ccc(N6CCOCC6)cc5)ncc4[C@@]4(C)COC(C)(C)C[C@@H]34)n2)CC1` (single isomer, unassigned) [Example 543]: the IC50 in test [1] (setting [2]) is 100 to 1000 nM; against Wee1 kinase domain (setting [3]) it was less than 10 nM.

Take `Cc1cc(Nc2ncc3c(n2)N(c2cccc(C(C)(C)O)n2)[C@@H]2CC(C)(C)OC[C@]32C)ccc1N1C[C@H]2C[C@@H]1CN2C` (single isomer, unassigned) [Example 425]: the IC50 in test [1] (setting [2]) is 100 to 1000 nM; against Wee1 kinase domain (setting [3]) it was less than 10 nM.

On to `CN1CC[C@@H]2CN(c3ccc(Nc4ncc5c(n4)N(c4cccc(N=S(C)(C)=O)n4)[C@@H]4CC(C)(C)OC[C@]54C)cc3)C[C@@H]21` (single isomer, unassigned) [Example 502], for which the IC50 in test [1] (setting [2]) was less than 100 nM; against Wee1 kinase domain (setting [3]) it was less than 10 nM.

As to `C[C@H]1COC(=O)N1c1cccc(N2c3nc(Nc4ccc(O[C@H]5CCNC5)nc4)ncc3[C@@]3(C)COC(C)(C)C[C@@H]23)n1` (single isomer, unassigned) [Example 285], the IC50 in test [1] (A-427, pCDC2 MSD) was 100 to 1000 nM; on Wee1 kinase domain (Wee1 kinase domain, ADP-Glo), less than 10 nM.

As to `CC1(C)C[C@H]2N(c3cccc(N4CCOC4=O)n3)c3nc(Nc4ccc(O[C@H]5CCNC5)cc4)ncc3[C@@]2(C)CO1` [Example 613, 3-(6-((4bR,8aR)-4b,7,7-trimethyl-2-((4-(((S)-pyrrolidin-3-yl)oxy)phenyl)amino)-4b,7,8,8a-tetrahydropyrano[3′,4′:4,5]pyrrolo[2,3-d]pyrimidin-9(5H)-yl)pyridin-2-yl)oxazolidin-2-one], the IC50 in test [1] (setting [2]) was less than 100 nM; against Wee1 kinase domain (setting [3]) it was less than 10 nM.

As for `CC1(C)C[C@H]2N(c3cccc(C4(F)CNC4)n3)c3nc(Nc4ccc(N5CCOCC5)cc4)ncc3[C@@]2(C)CO1` (single isomer, unassigned) [Example 545], the IC50 in test [1] (setting [2]) is 100 to 1000 nM; on Wee1 kinase domain (setting [3]), less than 10 nM.

As for `CC1(C)C[C@H]2N(c3cccc(N=S(C)(C)=O)n3)c3nc(Nc4ccc([C@@H]5CCCN5)nc4)ncc3[C@@]2(C)CO1` (single isomer, unassigned) [Example 214], the IC50 is 100 to 1000 nM in test [1] (A-427, pCDC2 MSD) and less than 10 nM against Wee1 kinase domain (Wee1 kinase domain, ADP-Glo).

For the compound `CC1(C)C[C@H]2N(c3cccc(N=S(C)(C)=O)n3)c3nc(Nc4cncc(F)c4)ncc3[C@@]2(C)CO1` (single isomer, unassigned) [Example 369], the IC50 is 100 to 1000 nM in test [1] (A-427, pCDC2 MSD) and less than 10 nM at Wee1 kinase domain (Wee1 kinase domain, ADP-Glo).

Regarding `CN1CCc2ccc(Nc3ncc4c(n3)N(c3cccc(N=S(C)(C)=O)n3)[C@@H]3CC(C)(C)OC[C@]43C)cc2C1` (single isomer, unassigned) [Example 109], the IC50 is less than 100 nM in test [1] (A-427, pCDC2 MSD) and less than 10 nM at Wee1 kinase domain (Wee1 kinase domain, ADP-Glo).

Consider `CN1CC[C@@H](Oc2ccc(Nc3ncc4c(n3)N(c3cccc(N=S(C)(C)=O)n3)[C@@H]3CC(C)(C)OC[C@]43C)cc2)C1` (single isomer, unassigned) [Example 159], for which the IC50 in test [1] (A-427, pCDC2 MSD) was less than 100 nM; against Wee1 kinase domain (Wee1 kinase domain, ADP-Glo) it was less than 10 nM.

For `CNCc1cccc(N2c3nc(Nc4ccc([C@H]5CCOC5)cc4)ncc3[C@@]3(C)COC(C)(C)C[C@@H]23)n1` (single isomer, unassigned) [Example 40], the IC50 in test [1] (A-427, pCDC2 MSD) is less than 100 nM; at Wee1 kinase domain (Wee1 kinase domain, ADP-Glo), less than 10 nM.

For `C[C@H]1CCC(=O)N1c1cccc(N2c3nc(Nc4ccc(N5CCN(C)CC5)cc4)ncc3[C@@]3(C)COC(C)(C)C[C@@H]23)n1` (single isomer, unassigned) [Example 583], the results for the IC50 (in test [1] (setting [2]); on Wee1 kinase domain (setting [3])) were 100 to 1000 nM and less than 10 nM, respectively.

For the compound `CN[C@@H](C)c1cccc(N2c3nc(Nc4ccc(N5C[C@H]6C[C@@H]5CO6)cc4)ncc3[C@]3(C)COC(C)(C)C[C@H]23)n1` (single isomer, unassigned) [Example 579], the IC50 is 100 to 1000 nM in test [1] (setting [2]) and less than 10 nM against Wee1 kinase domain (setting [3]).

Take `CNCc1cccc(N2c3nc(Nc4ccc(N5C[C@H]6C[C@@H](C5)O6)cc4)ncc3[C@@]3(C)COC(C)(C)C[C@@H]23)n1` (single isomer, unassigned) [Example 481]: the results for the IC50 (in test [1] (setting [2]); at Wee1 kinase domain (setting [3])) were 100 to 1000 nM and less than 10 nM, respectively.

`C[C@H]1COC(=O)N1c1cccc(N2c3nc(Nc4ccc([C@@H]5CCN(C)C5)nc4)ncc3[C@]3(C)COC(C)(C)C[C@H]23)n1` (single isomer, unassigned) [Example 264]: the IC50 in test [1] (A-427, pCDC2 MSD) fell in the range of 100 to 1000 nM; against Wee1 kinase domain (Wee1 kinase domain, ADP-Glo), 10 to 100 nM.

Take `C[C@H]1COC(=O)N1c1cccc(N2c3nc(Nc4ccc([C@@H]5CCN(C)C5)nc4)ncc3[C@@]3(C)COC(C)(C)C[C@@H]23)n1` (single isomer, unassigned) [Example 265]: the IC50 in test [1] (A-427, pCDC2 MSD) is less than 100 nM; on Wee1 kinase domain (Wee1 kinase domain, ADP-Glo) it was less than 10 nM.

On to `C[C@H]1COC(=O)N1c1cccc(N2c3nc(Nc4ccc(O[C@H]5CCN(C)C5)cc4)ncc3[C@@]3(C)COC(C)(C)C[C@@H]23)n1` (single isomer, unassigned) [Example 333], for which the IC50 was 100 to 1000 nM in test [1] (A-427, pCDC2 MSD) and less than 10 nM against Wee1 kinase domain (Wee1 kinase domain, ADP-Glo).

In the case of `CN1CC(c2ccc(Nc3ncc4c(n3)N(c3cccc(N5CCOC5=O)n3)[C@@H]3CC(C)(C)OC[C@]43C)cc2)C1` [Example 698, 3-(6-((4bR,8aR)-4b,7,7-trimethyl-2-((4-(1-methylazetidin-3-yl)phenyl)amino)-4b,7,8,8a-tetrahydropyrano[3′,4′:4,5]pyrrolo[2,3-d]pyrimidin-9(5H)-yl)pyridin-2-yl)oxazolidin-2-one], the IC50 is 100 to 1000 nM in test [1] (setting [2]) and less than 10 nM against Wee1 kinase domain (setting [3]).

For `CN1CCC(c2cc(Nc3ncc4c(n3)N(c3cccc(N=S(C)(C)=O)n3)[C@@H]3CC(C)(C)OC[C@]43C)on2)CC1` (single isomer, unassigned) [Example 204], the IC50 in test [1] (A-427, pCDC2 MSD) was 100 to 1000 nM; on Wee1 kinase domain (Wee1 kinase domain, ADP-Glo), less than 10 nM.

With `CN1C[C@H]2C[C@@H]1CN2c1ccc(Nc2ncc3c(n2)N(c2ccn(C)n2)[C@@H]2CC(C)(C)OC[C@]32C)cc1` (single isomer, unassigned) [Example 520], the IC50 in test [1] (setting [2]) is 1000 to 10000 nM; against Wee1 kinase domain (setting [3]), less than 10 nM.

Consider `CN1CC2CC1CN2c1ccc(Nc2ncc3c(n2)N(c2cccc(C(F)F)n2)[C@@H]2CC(C)(C)OC[C@]32C)cc1` (stereo in doubt) [Example 814, (4bR,8aR)-9-(6-(difluoromethyl)pyridin-2-yl)-4b,7,7-trimethyl-N-(4-((1R,4R)-5-methyl-2,5-diazabicyclo[2.2.1]heptan-2-yl)phenyl)-4b,5,7,8,8a,9-hexahydropyrano[3′,4′:4,5]pyrrolo[2,3-d]pyrimidin-2-amine], for which the IC50 in test [1] (A-427, read-out: A427 pCDC2 MSD IC50) was 100 to 1000 nM; on Wee1 kinase domain (1 nM Wee1 enzyme, 4 hours at 25° C), less than 10 nM.

Take `CC1(C)C[C@H]2N(c3ccc4c(n3)CCNC4)c3nc(Nc4ccc(N5CCOCC5)cc4)ncc3[C@@]2(C)CO1` (single isomer, unassigned) [Example 562]: the results for the concentration for half-maximal inhibition (IC50) (in test [1] (setting [2]); on Wee1 kinase domain (setting [3])) were 100 to 1000 nM and less than 10 nM, respectively.

As to `C[C@H]1COC(=O)N1c1cccc(N2c3nc(Nc4ccc([C@H]5CCN(C)C5)nc4)ncc3[C@@]3(C)COC(C)(C)C[C@@H]23)n1` (single isomer, unassigned) [Example 263], the IC50 in test [1] (A-427, pCDC2 MSD) was less than 100 nM; on Wee1 kinase domain (Wee1 kinase domain, ADP-Glo), less than 10 nM.

Turning to `CC1(C)C[C@H]2N(c3cccc(N=S(C)(C)=O)n3)c3nc(NC(=O)[C@@H]4C[C@H]4c4cccnc4)ncc3[C@@]2(C)CO1` (single isomer, unassigned) [Example 401], the figures for the IC50 (in test [1] (setting [2]); against Wee1 kinase domain (setting [3])) were 100 to 1000 nM and less than 10 nM, respectively.

In the case of `CN1C[C@@H]2C[C@H]1CN2c1ccc(Nc2ncc3c(n2)N(c2cccc(N4CCOC4=O)n2)[C@@H]2CC(C)(C)OC[C@]32C)cc1F` [Example 676, 3-(6-((4bR,8aR)-2-((3-fluoro-4-((1S,4S)-5-methyl-2,5-diazabicyclo[2.2.1]heptan-2-yl)phenyl)amino)-4b,7,7-trimethyl-4b,7,8,8a-tetrahydropyrano[3′,4′:4,5]pyrrolo[2,3-d]pyrimidin-9(5H)-yl)pyridin-2-yl)oxazolidin-2-one], the 50% inhibitory concentration (IC50) in test [1] (setting [2]) is 100 to 1000 nM; on Wee1 kinase domain (setting [3]) it was less than 10 nM.

As to `CNCc1cccc(N2c3nc(Nc4ccc5c(c4)C(=O)N(C)CC5(C)C)ncc3[C@@]3(C)COC(C)(C)C[C@@H]23)n1` (single isomer, unassigned) [Example 92], the IC50 is 100 to 1000 nM in test [1] (A-427, pCDC2 MSD) and less than 10 nM against Wee1 kinase domain (Wee1 kinase domain, ADP-Glo).

On to `CC1(C)C[C@H]2N(c3cccc(N=S(C)(C)=O)n3)c3nc(Nc4ccc(N5CCOCC5)nc4)ncc3[C@@]2(C)CO1` (single isomer, unassigned) [Example 493], for which the IC50 in test [1] (setting [2]) is 100 to 1000 nM; on Wee1 kinase domain (setting [3]), less than 10 nM.

For `CC1(C)C[C@H]2N(c3cccc([C@H]4CCCN4)n3)c3nc(Nc4ccn(C5CCOCC5)c(=O)c4)ncc3[C@@]2(C)CO1` (single isomer, unassigned) [Example 394], the IC50 is 1000 to 10000 nM in test [1] (A-427, pCDC2 MSD) and less than 10 nM on Wee1 kinase domain (Wee1 kinase domain, ADP-Glo).
